In patent US20180015066A1, “DRUG COMPLEXES COMPRISING ALPHA-FETOPROTEIN” (UNIVERSITY HEALTH NETWORK, priority 2015, published 2018) one finds IC50 data, which are given here for two molecules.

The assay has as its system cell lines carrying AFP receptor. The experiment in a line: Anti-cancer activities: in vitro antiproliferative assay (IC50). In kind it is cell-based. As to conditions: samples in PBS pH 7.4; concentration expressed as Pac or Pac-succinate; read-out: IC50 ± std. error (nM) for Pac or Pac-succinate.

In general, IC50 refers to the concentration at which inhibition is half-maximal. For the molecule `CC(=O)O[C@H]1C(=O)[C@@]2(C)[C@H]([C@H](OC(=O)c3ccccc3)[C@]3(O)C[C@H](OC(=O)[C@H](O)[C@@H](NC(=O)c4ccccc4)c4ccccc4)C(C)=C1C3(C)C)[C@]1(OC(C)=O)CO[C@@H]1C[C@@H]2O` [Paclitaxel], the IC50 is 3.4 ± 0.8 nM.

For “paclitaxel succinate [Paclitaxel-Succinate]”, the IC50 is 26.5 ± 11.3 nM.
